Laboratory results from US11098021B2, “Phenylsulfonamido-benzofuran derivatives and uses thereof in the treatment of proliferative diseases” (Memorial Sloan-Kettering Cancer Center, priority 2015, dated 2021).

Legend:
Type in all cases: cell-based
[1] = tested on: DMS53, SW1417, and H82 cell lines; assay: selective apoptotic induction in cell lines addicted to BCL-2, BCL-XL or MCL-1; conditions: MCL-1 addicted cancer cell line (H82) over BCL-2 (DMS53) or BCL-XL (SW1417) addicted cancer cell lines; FIG. 2B
[2] = tested on: MCL-1-addicted cancer cell-line, H23; assay: apoptosis induction in MCL-1-addicted cancer cell line H23; conditions: H23 cells
[3] = tested on: MCL-1-addicted cancer cell-line, H82; assay: apoptosis induction in MCL-1-addicted cancer cell line H82; conditions: H82 cells
[4] = 1 µM of compound, FIG. 1B legend

Structure (SMILES): CCOC(=O)c1c(C)oc2cc(Br)c(NS(=O)(=O)c3ccc(OC)cc3)cc12 [Compound 1]
- selectivity of apoptosis induction [1]: selectively induce apoptosis
- apoptosis induction ([2]; 1 μM of compound, FIG. 1B): robust apoptosis
- apoptosis induction [2, 4]: robust apoptosis
- apoptosis induction ([3]; 1 μM of compound, FIG. 1B): robust apoptosis
- apoptosis induction [3, 4]: robust apoptosis
